The results in this text go back to the SangsterLogP compilation.

Structures are written as SMILES.

For the first series the following is noted: pH 2.0.
The term logD denotes lipophilicity at a set pH, counting ionised and neutral species. Low readings indicate a more hydrophilic compound, high ones a more lipophilic compound. In turn, `COC(=O)C(=O)C1=C(c2ccc(Cl)cc2)NC(=O)N[C@@H]1c1ccc(Cl)cc1` gave a logD of 3.56.
Same read-out and setting: in the case of `CC[C@@H](NS(=O)(=O)c1ccc(C)cc1)C(=O)Oc1ccc2c3c(c(=O)oc2c1)CCCC3` it was 3.08.
On the same count and under the same terms, as for `COc1ccc([C@@H](C(=O)Nc2ccc3c(c2)OCCO3)N(C)C(=O)Cc2c[nH]c3ccccc23)cc1`, the figure is 3.76; as for `O=C1[C@@H](CSCc2ccccc2)NC(=S)N1C1CCCCC1`, 4.58.
The same measure, in the same setting: in the case of `O=C1[C@@H]2[C@@H]3[C@H]4C[C@H]5[C@@H]3[C@@H]2C2(OCCO2)[C@H]5[C@@H]14` it was 0.51; in that of `COCON1C(=O)CN(C(C)=O)[C@H]1c1ccc(Cl)cc1Cl`, 1.98.
As to `CCOC(=O)/C=c1/s/c(=C/c2c(F)cccc2F)c(=O)n1CC(=O)N(C)C`, the pH-dependent lipophilicity (logD) was 3.17.
With `CN(C)S(=O)(=O)c1cccc(Cn2c(=O)c(=O)n(Cc3ccccc3)c3ccc(Cl)cc32)c1`, the logD is 3.37.
`CC(=O)N1Cc2ccccc2C[C@H]1C(=O)OCc1ccc(C#N)cc1` returned a logD of 2.41.
As for `O=C(COC(=O)/C=C/c1ccc(F)cc1)Nc1cc(C(F)(F)F)ccc1N1CCOCC1`, the log distribution coefficient (logD) is 5.08.

The same series, now with this note: pH 5.0.
`O=C(OCCN1C(=O)c2ccccc2C1=O)[C@@H]1C[C@H](O)CN1S(=O)(=O)c1ccc(Cl)cc1` showed a logD of 3.65.
Regarding `CC[C@H](C)NC(=O)NC(C(F)(F)F)C(F)(F)F`, the logD stood at 2.84.
Still for that read-out and setting: in the case of `COc1cc(/C=C/C(=O)N[C@H]2CCCc3ccccc32)cc(OC)c1OC` it was 4.27; in that of `COc1cc([C@H]2C(C(=O)c3ccccc3)=C(N)N(c3ccccc3C(F)(F)F)C3=C2C(=O)CCC3)cc(OC)c1OC`, 4.51; in that of `COc1ccc([C@@H]2C3=C(C[C@H](c4ccco4)CC3=O)Nc3ccccc3N2C(=O)C(F)(F)F)cc1`, 4.62.
Take `O=C(/C=C/Nc1cccc(C(F)(F)F)c1)c1ccc(Br)cc1`: the pH-dependent lipophilicity (logD) came to 5.65.
Turning to `C[C@@H]1C=CC[C@@H]2C(=O)N(c3cccc(C(=O)OCC(=O)c4ccc(Br)cc4)c3)C(=O)[C@H]12`, the log distribution coefficient (logD) was found to be 5.29.
In turn, `O=C(Cc1coc2cc3c(cc12)CCC3)O[C@H]1CCCCC1=O` showed a logD of 4.43.
Still for that read-out and setting: as for `CC1(C)[C@H](C(=O)N2CCOCC2)CC[C@]1(C)C(=O)N1CCOCC1`, the figure is 2.46; as for `COc1ccc(C(=O)/C=C/C=C(Cl)Cl)cc1`, 4.4; as for `COc1ccccc1/C=N/n1c(C)cc(C)c(C#N)c1=O`, 3.08.
In turn, `O=C(NC[C@H]1CCCO1)c1cc2nc(C3CC3)cc(C(F)(F)F)n2n1` registered a logD of 3.33.
Regarding `CC1CCN(S(=O)(=O)N2CCC(C(=O)N[C@@H](C)c3ccccc3)CC2)CC1`, the logD worked out at 4.92.
In turn, `CC(C)(C)C(=O)Nc1ccc(NC(=O)C(C)(C)C)cc1` returned a logD of 2.79.
As to `C#CCN1C(=O)[C@H]2CC[C@@](C)(C1=O)C2(C)C`, the logD was 2.28.
`CCOC(=O)c1[nH]c(C)c(C(=O)OCC(=O)N(C)[C@@H]2CCS(=O)(=O)C2)c1C`: the pH-dependent lipophilicity (logD) amounted to 3.35.
Same read-out and setting: in the case of `Cc1ccc(NC(=O)[C@@H]2CCCN2C(=O)OC(C)(C)C)cc1C` it was 3.9.
Regarding `CC1=NN(C(=O)c2ccccc2Cl)[C@](O)(c2ccc(Cl)cc2)C1`, the log distribution coefficient (logD) is 3.73.
Still for that read-out and setting: in the case of `Cc1cccc(NC(=O)NC(C)C)c1C` it was 2.7; in that of `CC(=O)c1c(C)[nH]c(C(=O)COC(=O)c2ccccc2NC(=O)c2ccco2)c1C`, 4.73.
With `C[C@H]1C[C@H](NC(=S)NCc2csc3ccccc23)CC(C)(C)C1`, the logD stood at 6.21.
In the case of `O=C1Nc2cc(C(=O)NC3CC3)ccc2S/C1=C\c1ccccc1`, the logD is 4.32.
On to `CC[C@H](C(=O)N1CCCN(C(=O)[C@@H](CC)c2ccccc2)CC1)c1ccccc1`, for which the logD was 4.93.
For the molecule `CC1(C)C[C@](C)(O)[P@](C)(=O)O1`, the logD came out at 0.71.
Consider `COc1ccc([C@@H]2CCCC[C@H]2O)cc1`, for which the logD worked out at 2.85.
`O=C(c1nn2c(c1Br)N[C@H](c1cccs1)C[C@H]2C(F)(F)F)N1CCCC1` displayed a logD of 4.47.
In turn, `CC(C)C(=O)N[C@H](Oc1ccc(C=O)cc1)C(Cl)(Cl)Cl` registered a logD of 3.68.
Molecule `O=C1/C(=C/c2ccsc2)SC(=S)N1c1cccc(C(F)(F)F)c1` displayed a logD of 5.8.
Turning to `Cc1cc(Cl)ccc1NC(=S)NCCc1c[nH]c2ccccc12`, the pH-dependent lipophilicity (logD) came to 4.34.
For `COc1ccccc1NC(=O)C1=C(C)NC(SCC(=O)Nc2ccc(C)c(Cl)c2)=C(C#N)[C@@H]1c1ccco1`, the log distribution coefficient (logD) came out at 6.27.
The molecule `CS(=O)(=O)N(CC(=O)N1CCc2ccccc2C1)c1ccc(OCc2ccccc2)cc1` had a logD of 4.91.
On the same count and under the same terms, as for `O=C1[C@@H](c2cccc(Br)c2)N(CCC2=CCCCC2)C(=O)CN1C1CCCCC1`, the figure is 5.6; as for `COc1ccc(N(C(=O)C2CCCCC2)S(=O)(=O)c2ccc3c4c(cccc24)C(=O)N3C)cc1`, 5.26.
`O=C(/C=C/c1ccccc1)Nc1cccc(NC(=O)c2cccc(Cl)c2)c1` displayed a log distribution coefficient (logD) of 5.53.
`O=C(c1sc2cc(Cl)ccc2c1Cl)N1CCN(C(=S)NC[C@H]2CCCO2)CC1` showed a logD of 4.83.
As to `CCOC(=O)c1c(NC=C2C(=O)N(C)C(=O)N(C)C2=O)sc2c1CC[C@@H](CC)C2`, the log distribution coefficient (logD) is 5.76.

Staying with this series, now noted: pH 6.5.
Regarding `CCN(C(=O)CN1C(=O)[C@H]2CCCC[C@H]2C1=O)c1nnc(-c2ccc(Cl)cc2)s1`, the log distribution coefficient (logD) is 4.91.
Still for that read-out and setting: in the case of `CC(C)(C)S(=O)(=O)/C(C#N)=C/Nc1ccc(OC(F)(F)F)cc1` it was 4.28.
For the molecule `CCCOc1ccc(N2C(=O)C[C@H](N3CCNC3=S)C2=O)cc1`, the log distribution coefficient (logD) was determined as 2.68.
`Cc1ccc(N2CC(=O)N(/N=C/c3cn(-c4ccccc4)nc3-c3ccc(Cl)cc3)CC2=O)cc1` yielded a logD of 6.14.
For the molecule `N#CC1(C#N)[C@H](c2ccc(Br)s2)[C@@H](C(=O)c2ccccc2)N2c3ccccc3C=C[C@@H]21`, the logD amounted to 5.05.
Turning to `CCCCNC(=S)N(C)/N=C/c1ccc(OCc2ccc(Cl)cc2)c(OC)c1`, the logD worked out at 6.8.
With `CCn1c(NC[C@@H](O)c2ccccc2)nc2c1c(=O)n(C)c(=O)n2C`, the logD turned out to be 3.24.

The series is the same for the next values; noted with them: pH 7.0.
`CC(=O)Nc1ccc([C@H]2C(C#N)=C(N)Oc3c2c(C)nn3-c2cccc(Cl)c2)cc1` showed a log distribution coefficient (logD) of 4.93.

The series is the same for the next values; noted with them: pH 7.3.
In turn, `COc1ccc([C@H]2C[C@H](C(F)(F)F)n3ncc(C(=O)N(C)Cc4cnn(C)c4C)c3N2)cc1OC` came in with a pH-dependent lipophilicity (logD) of 4.25.
On the same count and under the same terms, in the case of `O=C1C[C@@H](n2nc(-c3ccccc3)n(-c3ccccc3)c2=S)[C@@H]2CO[C@H]1O2` it was 3.65; in that of `CC(C)[C@@H](Sc1nnc(C(F)(F)F)n1C)C(=O)NC(N)=O`, 2.12.
In the case of `O=C1C(=O)N(OCc2ccc(Br)cc2)[C@H]2CCCC[C@@H]2N1OCc1ccc(Br)cc1`, the log distribution coefficient (logD) was 5.49.
`CC1=NC2=C(C(=O)CCC2)[C@H](c2ccc(Cl)cc2)C1C(=O)OCCc1ccccc1` (stereo partly specified) showed a logD of 5.48.

The series is the same for the next values; noted with them: pH 8.0.
Molecule `Cc1sc2ncn(CC(=O)N[C@@H]3CCC[C@@H](C)[C@H]3C)c(=O)c2c1C` registered a logD of 4.34.
Take `CC(=O)N(c1ccccc1)c1nc(/C=C/C(=O)Nc2ccc3c(c2)OCO3)cs1`: the log distribution coefficient (logD) amounted to 4.37.
`CCCc1[nH]nc2c1[C@@]1(C(=O)N(CC(N)=O)c3ccccc31)C(C(=O)OC)=C(N)O2`: the logD worked out at 4.48.

Still in this series, the particulars now being: pH 10.0.
As to `CCOC(=O)C1=NN[C@@]2(c3cccc([N+](=O)[O-])c3)C(=O)N(c3cccc(C(F)(F)F)c3)C(=O)[C@H]12`, the logD was determined as 4.73.
`C(=N\n1cnnc1)/c1ccc(-n2nc(-c3ccccc3)cc2-c2ccccc2)cc1` returned a logD of 5.58.
On to `CCCC[C@@]1(c2ccccc2)NC(=S)N(c2ccc(C)cc2)N1`, for which the pH-dependent lipophilicity (logD) stood at 5.1.
Turning to `COc1ccc2c(c1)C(=O)N(Cc1ccco1)C(=O)/C2=C\Nc1c(C)n(C)n(-c2ccccc2)c1=O`, the logD was found to be 4.66.
The same measure, in the same setting: as for `CSc1ccc([C@@H]2[C@@H]3C(=O)N(c4cccc(C(F)(F)F)c4)C(=O)[C@H]3ON2c2ccccc2)cc1`, the figure is 5.98; as for `CCOC(=O)[C@H]1N=C(C2=C(O)c3ccccc3C2=O)[C@@H]2C(=O)N(N(C)c3ncc(C(F)(F)F)cc3Cl)C(=O)[C@@H]21`, 4.38.
`CC(=O)c1ccc(N2CCN(C(=O)/C=C/c3ccc(C)o3)CC2)cc1` displayed a logD of 4.3.
`CC(=O)/N=c1/sc2nc3ccccc3nc2n1N(C(C)=O)C(C)=O` gave a log distribution coefficient (logD) of 1.1.
With `CC/N=C1\S/C(=C\c2cn(CC(=O)Nc3cccc(C)c3)c3ccccc23)C(=O)N1CC`, the logD was 5.8.
With `CCOCCOC(=O)[C@H](C)n1cnc2sc3c(c2c1=O)CC[C@H](C)C3`, the logD was found to be 4.25.
Molecule `COc1ccccc1[C@H]1CC(=O)C2=C(C1)NC(C)=C(C(=O)OC1CCCC1)[C@H]2c1ccc(OC(C)=O)cc1` showed a pH-dependent lipophilicity (logD) of 5.81.
Consider `CCO/C(O)=C/c1nc2nonc2nc1O`, for which the logD turned out to be 1.61.
Take `CC(C)OC(=O)C1=C(CSc2nc3c(cc2C#N)CCCCC3)OC(N)=C(C#N)[C@@H]1c1ccncc1`: the logD came out at 5.43.
Consider `C[C@H]1C[C@H](C)CN(C(=O)CSc2nnc(-c3ccccc3)n2C)C1`, for which the log distribution coefficient (logD) is 3.68.

Staying with this series, now noted: pH 10.5.
`CCCc1[nH]nc2c1[C@H](c1ccsc1C)C(C#N)=C(N)O2` had a logD of 3.83.
As for `CN1C(=O)N(C)C2(c3ccccc3)Nn3c(s/c(=C\c4ccc(Br)cc4)c3=O)=NC12c1ccccc1` (stereo unspecified), the log distribution coefficient (logD) came to 5.72.
Regarding `C=CCn1c(SCC(=O)N2C[C@@]3(C)C[C@@H]2CC(C)(C)C3)nc2sc(CC)cc2c1=O`, the pH-dependent lipophilicity (logD) stood at 6.04.
Still for that read-out and setting: as for `CCOC(=O)C1CCN(C(=O)c2ccc(Cl)c(/N=C3/N[C@@H]4CS(=O)(=O)C[C@@H]4S3)c2)CC1`, the figure is 2.96; as for `CC(=O)C1=C(C)NC(SCC(=O)c2ccc(Cl)cc2Cl)=C(C#N)[C@@H]1c1cccs1`, 5.25.
Turning to `N#CC1=C(N)OC2=NN=C(c3cccs3)[C@@H]2[C@@H]1C1CCCCC1`, the logD was determined as 4.64.
`CN(c1ccccc1)S(=O)(=O)c1ccc(C(=O)N2CCN(c3ccccc3Cl)CC2)cc1`: the logD came to 5.31.
Regarding `Cc1cccc(-n2c(S[C@@H](C)C(N)=O)nnc2-c2cccc(S(=O)(=O)N(C)C)c2)c1`, the pH-dependent lipophilicity (logD) worked out at 3.81.
Take `C/C(=C\c1ccco1)[C@H]1C(C#N)=C(N)Oc2n[nH]c(-c3ccccc3)c21`: the logD came to 4.82.
`N#CC1=C(N)Oc2c(c(=O)oc3ccccc23)[C@H]1c1cccs1` returned a logD of 2.34.
